# ChEMBL document CHEMBL3797190, “Development of 3,5-Dinitrobenzylsulfanyl-1,3,4-oxadiazoles and Thiadiazoles as Selective Antitubercular Agents Active Against Replicating and Nonreplicating Mycobacterium tuberculosis” (J Med Chem, 2016)
# What was measured:
# Type in all cases: functional
# Mycobacterium avium [1] = assay: Antimycobacterial activity against Mycobacterium avium CNCTC My 330/88 after 14 days by microdilution method; settings: CNCTC My 330/88, 336 h
# Mycobacterium kansasii [2] = assay: Antimycobacterial activity against Mycobacterium kansasii CNCTC My 6509/96 after 21 days by microdilution method; settings: CNCTC My 6509/96, 504 h
# [3] = test system: Mycobacterium tuberculosis; assay: Antimycobacterial activity against Mycobacterium tuberculosis CNCTC My 331/88 after 21 days by microdilution method; settings: CNCTC My 331/88, 504 h
# Mycobacterium kansasii [4] = assay: Antimycobacterial activity against Mycobacterium kansasii CNCTC My 235/80 after 7 days by microdilution method; settings: CNCTC My 235/80, 168 h
# Mycobacterium avium [5] = assay: Antimycobacterial activity against Mycobacterium avium CNCTC My 330/88 after 21 days by microdilution method; settings: CNCTC My 330/88, 504 h
# Mycobacterium kansasii [6] = assay: Antimycobacterial activity against Mycobacterium kansasii CNCTC My 235/80 after 14 days by microdilution method; settings: CNCTC My 235/80, 336 h
# Mycobacterium kansasii [7] = assay: Antimycobacterial activity against Mycobacterium kansasii CNCTC My 6509/96 after 7 days by microdilution method; settings: CNCTC My 6509/96, 168 h
# [8] = test system: Mycobacterium tuberculosis; assay: Antimycobacterial activity against Mycobacterium tuberculosis CNCTC My 331/88 after 14 days by microdilution method; settings: CNCTC My 331/88, 336 h
# Mycobacterium kansasii [9] = assay: Antimycobacterial activity against Mycobacterium kansasii CNCTC My 235/80 after 21 days by microdilution method; settings: CNCTC My 235/80, 504 h
# Mycobacterium kansasii [10] = assay: Antimycobacterial activity against Mycobacterium kansasii CNCTC My 6509/96 after 14 days by microdilution method; settings: CNCTC My 6509/96, 336 h
Structure (SMILES),MIC99 (Mycobacterium avium [1]) [µM],MIC99 (Mycobacterium kansasii [2]) [µM],MIC99 [3] [µM],MIC99 (Mycobacterium kansasii [4]) [µM],MIC99 (Mycobacterium avium [5]) [µM],MIC99 (Mycobacterium kansasii [6]) [µM],MIC99 (Mycobacterium kansasii [7]) [µM],MIC99 [8] [µM],MIC99 (Mycobacterium kansasii [9]) [µM],MIC99 (Mycobacterium kansasii [10]) [µM]
O=[N+]([O-])c1cc(CSc2nnc(-c3ccc(O)cc3)o2)cc([N+](=O)[O-])c1,62,16,1,4,62,8,4,1,16,8
Cc1cc(C)cc(-c2nnc(SCc3cc([N+](=O)[O-])cc([N+](=O)[O-])c3)o2)c1,> 32,2,0.06,0.25,> 32,0.5,0.5,0.06,1,1
O=[N+]([O-])c1ccc(CSc2nnc(-c3ccc([N+](=O)[O-])cc3)s2)cc1,250,62,62,250,250,250,62,62,250,62
O=[N+]([O-])c1cc(CSc2nnc(-c3ccc(Cl)cc3)o2)cc(C(F)(F)F)c1,> 500,> 32,> 32,> 32,> 500,> 32,> 32,> 32,> 32,> 32
Cc1ccc(-c2nnc(SCc3cc([N+](=O)[O-])cc([N+](=O)[O-])c3)s2)cc1,> 125,2,0.125,0.5,> 125,0.5,0.5,0.125,1,1
Nc1cc(CSc2nnc(-c3ccc([N+](=O)[O-])cc3)s2)cc([N+](=O)[O-])c1,250,250,125,250,250,250,250,125,250,250
O=[N+]([O-])c1ccc(CSc2nnc(-c3ccncc3)o2)c([N+](=O)[O-])c1,62,32,8,16,62,32,32,8,32,32
O=[N+]([O-])c1cc(CSc2nnc(-c3ccncc3)s2)cc([N+](=O)[O-])c1,> 125,1,0.125,0.5,> 125,1,0.5,0.125,1,1
O=[N+]([O-])c1cc(CSc2nnc(-c3ccccc3Cl)o2)cc([N+](=O)[O-])c1,16,1,0.125,0.125,32,0.25,0.125,0.125,0.5,0.5
Cc1nnc(SCc2cc([N+](=O)[O-])cc([N+](=O)[O-])c2)o1,500,32,8,4,500,8,16,4,16,16
COc1cc(OC)cc(-c2nnc(SCc3cc([N+](=O)[O-])cc([N+](=O)[O-])c3)o2)c1,16,1,0.125,0.125,16,0.25,0.125,0.125,0.5,0.5
O=[N+]([O-])c1cc(CSc2nnc(-c3ccncc3)o2)cc([N+](=O)[O-])c1,62,4,0.5,1,62,2,2,0.5,2,2
